From BindingDB's records for patent US10981904 (Cancer Research Technology, 2021)

Target: T1, Glutaminase kidney isoform, mitochondrial [63-669] (Homo sapiens, UniProt O94925)
T1 sequence (O94925 whole entry): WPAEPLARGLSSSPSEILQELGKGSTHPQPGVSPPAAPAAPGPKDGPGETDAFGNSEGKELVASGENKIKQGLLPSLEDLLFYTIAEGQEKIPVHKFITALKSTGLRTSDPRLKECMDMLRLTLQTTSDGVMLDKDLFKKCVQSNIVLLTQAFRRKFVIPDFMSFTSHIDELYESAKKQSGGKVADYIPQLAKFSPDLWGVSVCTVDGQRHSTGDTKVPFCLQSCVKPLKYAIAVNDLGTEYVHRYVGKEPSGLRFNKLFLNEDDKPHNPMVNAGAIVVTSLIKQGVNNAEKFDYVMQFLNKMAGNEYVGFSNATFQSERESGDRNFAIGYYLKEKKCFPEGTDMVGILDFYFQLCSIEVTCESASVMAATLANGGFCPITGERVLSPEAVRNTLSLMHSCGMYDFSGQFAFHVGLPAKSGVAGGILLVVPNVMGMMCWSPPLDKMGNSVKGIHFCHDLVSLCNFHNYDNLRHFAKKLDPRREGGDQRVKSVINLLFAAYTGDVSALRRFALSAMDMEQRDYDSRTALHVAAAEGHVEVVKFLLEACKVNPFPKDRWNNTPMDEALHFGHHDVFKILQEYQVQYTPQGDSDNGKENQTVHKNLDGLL
Experiment: GLS Enzyme Potency Assay
Procedure: A Glutamate Oxidase/AmplexRed coupled assay was used to measure the ability of compounds to bind to and inhibit the activity of GLS1 in vitro. […] GLS1 was diluted to 2× working concentration and incubated at room temperature to allow the tetrameric/dimeric forms to reach steady state. Assay measurements were performed in buffer comprising 50 mM TRIS pH 7.8, 100 mM NaPO4, pH 7.8, 0.001% v/v Tween20. […] DMSO concentration was maintained at 2% by back filling with DMSO solution. […] 3 μL of 100 mM glutamine diluted in assay buffer was then added and the reaction incubated at room temperature for 60 minutes. […] An artefact version of the assay where the 6His tagged GLS protein and glutamine were replaced with assay buffer was also used to rule out non specific effects on the assay components.

| IC50 | SMILES |
| --- | --- |
| 192 nM | COC1CN(c2cc([C@H](OC)C(=O)Nc3nnc(N[C@@H]4CCN(c5cccnn5)C4)s3)ccc2F)C1 [US10981904, Example 7(b)] |
| 1840 nM | CO[C@H](C(=O)Nc1nnc(N[C@@H]2CCN(c3cccnn3)C2)s1)c1ccccc1C1COC1 [US10981904, Example 25] |
